Laboratory results reported in patent US11752122B2 (OKLAHOMA MEDICAL RESEARCH FOUNDATION, priority 2018, dated 2023).
“Also recorded” adds a separate entry of the source. Read-outs that look alike come from different tables or passages of the source.

How the values were obtained:
LDLR mice on HFD = conditions: for WSS (wall shear stress) / fractional valve opening: LDLR mice on HFD, vs untreated control mice
Excerpt: Mice. Hypercholesterolemic mice deficient for low-density lipoprotein receptors (Ldlr−/−), which only express ApoB-100 (Ldlr−/−Apob100/100, LDLR), were obtained from Jackson Laboratories (B6; 129SLdlrtm1HerApobtm2Sgy/J, stock no. 003000). WT C57bl/6 mice were also obtained from the Jackson Laboratory (stock no. 000664) and served as controls. TGF-β1^platelet-KO-LDLR mice (Pf4Cre+Tgfb1f/f;Ldlr−/−Apob100/100;) and TGF-β1^flox-LDLR littermate controls (Tgfb1f/f;Ldlr−/−Apob100/100) were generated by crossing LDLR mice with Pf4Cre+;Tgfb1f/f mice, as shown in FIGS. 7A-B and Supplemental Table 5. […] The inventor crossed Tie2Cre mice (stock no. 008863, Jackson Laboratories) with tdTomato lox-stop-lox mice (stock no. 007909, Jackson Laboratories) to generate Tie2Cre;tdTomato mice that express tdTomato only under Cre activity. All mice were housed in a controlled environment (23±2° C.; 12 hours light/dark cycles) and fed either a chow diet (CD) (PicoLab® Rodent Diet 20, 5053) or a customized high fat diet (HFD) (Harlan Teklad, TD.9612102. containing 21% milk fat (MF), 1.25% Cholesterol) in powdered form in a glass jar with perforated metal strainer (DYETS, Braintree Scientific Inc.). The Oklahoma Medical Research Foundation's Institutional Animal Care and Usage Committee approved all procedures.
Experimental Design. A total of 118 LDLR (58 Males, 60 Females) and 20 WT mice (10 Males, 10 Females) were used for this study. Half of the mice (6 weeks old) were switched to HFD and maintained for up to 9 months. Progression and severity (mild/moderate/severe) of AS were monitored at 0, 3, 6 and 9 months by echocardiography using non-invasive ultrasound imaging techniques. Five mice per cage (total of 25 males, 15 females) were treated with 2% N-acetylcysteine (NAC) (Acros Organics, 160280010) in drinking water. NAC was prepared in reverse osmosis water and its pH was adjusted to 7.4 with NaOH. Water was replaced with a fresh solution every week.
Echocardiography. Mice were anesthetized with Isoflurane (3-5% inhalation) in an induction chamber. Mice that appeared to be sick due to severe stenosis or that were underweight were anesthetized using a lower isoflurane level to prevent adverse or lethal effects from the anesthetic. Once visibly anesthetized, isoflurane was reduced to 0.5%-2% and the mouse was moved from the chamber to a nose-cone on a heated platform set at 40° C. to maintain body temperature (35±2° C.). Heavier mice were maintained at higher isoflurane levels as they appeared less sensitive to its anesthetic effects. All four limbs were taped to physiological electrodes and a rectal temperature probe was inserted. Electrode gel was used to enhance the physiologic readings. To ensure accuracy of all echo measurements, physiological parameters were monitored and recordings were only taken if the heart rate was 430-550 beats per minute, respiration was 20-100 breaths per minute, and body temperature was close to 37° C. (35±2° C.).
Measurement of AS parameters using a modified view of ultrasound imaging. Echocardiography is the gold standard non-invasive method to measure AS in humans. However, the mouse heart rate is 10-times faster (500 to 600 beats per minute), making the acquisition of high-resolution images of the very thin non-diseased valves challenging. […] LVOT was measured from the long-axis view and was used to calculate AV pressure and normalize the cusp separation (Lindman et al., 2016; Meyer et al., 2012). This view was obtained by tilting the lower left corner of the platform downward by about 30° and angling the transducer up such that it interfaced with the chest cavity by about 45°.

[1] = system: TGF-β1platelet-KO-LDLR mice on HFD; assay: Aortic stenosis progression in TGF-β1platelet-KO-LDLR mice on HFD, echocardiography; format: in vivo; conditions: TGF-β1platelet-KO-LDLR mice on HFD treated with NAC
Excerpt: Mice. Hypercholesterolemic mice deficient for low-density lipoprotein receptors (Ldlr−/−), which only express ApoB-100 (Ldlr−/−Apob100/100, LDLR), were obtained from Jackson Laboratories (B6; 129SLdlrtm1HerApobtm2Sgy/J, stock no. 003000). WT C57bl/6 mice were also obtained from the Jackson Laboratory (stock no. 000664) and served as controls. TGF-β1^platelet-KO-LDLR mice (Pf4Cre+Tgfb1f/f;Ldlr−/−Apob100/100;) and TGF-β1^flox-LDLR littermate controls (Tgfb1f/f;Ldlr−/−Apob100/100) were generated by crossing LDLR mice with Pf4Cre+;Tgfb1f/f mice, as shown in FIGS. 7A-B and Supplemental Table 5. […]
Experimental Design. […] Progression and severity (mild/moderate/severe) of AS were monitored at 0, 3, 6 and 9 months by echocardiography using non-invasive ultrasound imaging techniques. […]
Echocardiography. […] Electrode gel was used to enhance the physiologic readings. To ensure accuracy of all echo measurements, physiological parameters were monitored and recordings were only taken if the heart rate was 430-550 beats per minute, respiration was 20-100 breaths per minute, and body temperature was close to 37° C. […]
Measurement of AS parameters using a modified view of ultrasound imaging. […] LVOT was measured from the long-axis view and was used to calculate AV pressure and normalize the cusp separation (Lindman et al., 2016; Meyer et al., 2012). […]

[2] = Activity and stability of NAC dissolved in water; format: physicochemical; conditions: up to 15 days; tested by effect on blocking shear-dependent TGF-β1 activation
Excerpt: Experimental Design. […] Water was replaced with a fresh solution every week.

[3] = molecular target: T1, latent TGF-β1 released from platelets (Homo sapiens, UniProt P01137); conditions: in vitro; cited from earlier work
T1 construct: host or cells: platelet releasate

[4] = cited from earlier work
[5] = IV formulations; cited from earlier work
[6] = cited from earlier work; remark: listed apart in the source
[7] = LDLR HFD + NAC (2-5 Months), total n=8
[8] = LDLR HFD + NAC (3-5 Months), total n=11
[9] = LDLR HFD + NAC (5-6 Months), total n=7

T1 sequence (P01137 30-278 limits assumed): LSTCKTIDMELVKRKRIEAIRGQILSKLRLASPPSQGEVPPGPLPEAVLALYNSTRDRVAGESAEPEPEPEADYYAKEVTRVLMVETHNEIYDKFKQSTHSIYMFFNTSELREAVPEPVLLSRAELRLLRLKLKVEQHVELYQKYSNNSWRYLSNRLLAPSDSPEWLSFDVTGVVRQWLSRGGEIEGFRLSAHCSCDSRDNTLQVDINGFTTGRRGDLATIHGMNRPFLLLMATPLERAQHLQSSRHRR
T1 sequence (P01137 279-390 limits assumed): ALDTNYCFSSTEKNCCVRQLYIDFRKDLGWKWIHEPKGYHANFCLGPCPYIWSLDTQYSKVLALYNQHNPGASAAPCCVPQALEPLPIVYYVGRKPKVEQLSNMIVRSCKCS
T1 sequence (Q14766 24-1721 partner): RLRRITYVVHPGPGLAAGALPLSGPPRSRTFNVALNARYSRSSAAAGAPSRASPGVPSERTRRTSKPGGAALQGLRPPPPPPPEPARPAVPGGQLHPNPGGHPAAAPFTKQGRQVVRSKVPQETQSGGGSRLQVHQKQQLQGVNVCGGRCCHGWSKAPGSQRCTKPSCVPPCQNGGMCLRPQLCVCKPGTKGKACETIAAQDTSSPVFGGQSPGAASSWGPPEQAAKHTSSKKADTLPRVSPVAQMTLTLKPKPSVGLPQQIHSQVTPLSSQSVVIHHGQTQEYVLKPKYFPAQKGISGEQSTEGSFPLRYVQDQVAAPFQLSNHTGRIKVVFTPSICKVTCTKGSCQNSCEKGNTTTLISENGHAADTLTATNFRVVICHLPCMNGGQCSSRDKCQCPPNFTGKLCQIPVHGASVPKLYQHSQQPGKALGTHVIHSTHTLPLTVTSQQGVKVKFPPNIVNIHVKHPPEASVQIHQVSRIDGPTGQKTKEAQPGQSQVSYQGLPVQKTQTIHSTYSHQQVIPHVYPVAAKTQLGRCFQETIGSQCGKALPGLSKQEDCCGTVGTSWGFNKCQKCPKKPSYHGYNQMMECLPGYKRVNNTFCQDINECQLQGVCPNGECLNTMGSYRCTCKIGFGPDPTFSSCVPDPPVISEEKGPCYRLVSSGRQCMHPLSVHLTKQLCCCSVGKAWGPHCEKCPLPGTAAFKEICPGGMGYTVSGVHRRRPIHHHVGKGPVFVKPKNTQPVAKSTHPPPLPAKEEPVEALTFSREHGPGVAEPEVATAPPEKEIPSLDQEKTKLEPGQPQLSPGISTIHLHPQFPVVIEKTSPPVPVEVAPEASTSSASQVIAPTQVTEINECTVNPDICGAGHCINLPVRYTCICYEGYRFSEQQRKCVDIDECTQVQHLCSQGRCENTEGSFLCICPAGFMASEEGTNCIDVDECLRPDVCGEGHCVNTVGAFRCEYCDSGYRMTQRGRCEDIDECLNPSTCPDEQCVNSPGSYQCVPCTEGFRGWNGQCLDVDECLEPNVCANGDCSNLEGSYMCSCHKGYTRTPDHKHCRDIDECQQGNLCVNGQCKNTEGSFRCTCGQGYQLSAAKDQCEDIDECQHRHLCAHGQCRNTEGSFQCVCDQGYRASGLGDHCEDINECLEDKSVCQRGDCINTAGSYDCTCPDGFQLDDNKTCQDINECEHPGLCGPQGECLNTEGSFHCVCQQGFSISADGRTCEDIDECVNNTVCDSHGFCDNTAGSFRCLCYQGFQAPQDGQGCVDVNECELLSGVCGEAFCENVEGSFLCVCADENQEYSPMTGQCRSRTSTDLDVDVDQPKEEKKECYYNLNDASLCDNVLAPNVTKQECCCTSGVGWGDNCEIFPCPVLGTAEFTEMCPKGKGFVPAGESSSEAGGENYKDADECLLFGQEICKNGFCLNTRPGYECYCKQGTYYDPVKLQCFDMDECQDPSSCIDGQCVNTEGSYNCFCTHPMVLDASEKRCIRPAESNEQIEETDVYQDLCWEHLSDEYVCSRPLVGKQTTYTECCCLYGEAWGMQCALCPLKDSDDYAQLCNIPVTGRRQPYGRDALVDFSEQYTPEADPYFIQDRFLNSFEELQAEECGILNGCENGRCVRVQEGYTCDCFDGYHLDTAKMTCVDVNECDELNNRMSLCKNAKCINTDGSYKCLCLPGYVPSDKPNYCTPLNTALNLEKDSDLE

Structure (SMILES): CC(=O)N[C@@H](CS)C(=O)O [NAC, N-acetylcysteine]
- Penetrance, fractional valve opening: Mild Stenosis 0.75-0.85, number of mice (LDLR mice on HFD; [7]): 1
- Penetrance, fractional valve opening: Mild Stenosis 0.75-0.85, percent of mice (LDLR mice on HFD; [7]): (12%)
- Penetrance, fractional valve opening: Moderate Stenosis 0.6-0.75, number of mice (LDLR mice on HFD; [7]): 2
- Penetrance, fractional valve opening: Moderate Stenosis 0.6-0.75, percent of mice (LDLR mice on HFD; [7]): (25%)
- Penetrance, fractional valve opening: No Stenosis >0.85, number of mice (LDLR mice on HFD; [7]): 0
- Penetrance, fractional valve opening: No Stenosis >0.85, percent of mice (LDLR mice on HFD; [7]): (0%)
- Penetrance, fractional valve opening: Severe Stenosis <0.6, number of mice (LDLR mice on HFD; [7]): 5
- Penetrance, wall shear stress: Mild Stenosis 350-525 dyn/cm^2, number of mice (LDLR mice on HFD; [7]): 0
- Penetrance, wall shear stress: Mild Stenosis 350-525 dyn/cm^2, percent of mice (LDLR mice on HFD; [7]): (0%)
- Penetrance, wall shear stress: Moderate Stenosis 525-700 dyn/cm^2, number of mice (LDLR mice on HFD; [7]): 3
- Penetrance, wall shear stress: Moderate Stenosis 525-700 dyn/cm^2, percent of mice (LDLR mice on HFD; [7]): (37%)
- Penetrance, wall shear stress: No Stenosis <350 dyn/cm^2, number of mice (LDLR mice on HFD; [7]): 0
- Penetrance, wall shear stress: No Stenosis <350 dyn/cm^2, percent of mice (LDLR mice on HFD; [7]): (0%)
- Penetrance, wall shear stress: Severe Stenosis >700 dyn/cm^2, number of mice (LDLR mice on HFD; [7]): 6
- Penetrance, wall shear stress: Severe Stenosis >700 dyn/cm^2, percent of mice (LDLR mice on HFD; [7]): (63%)
- Penetrance, fractional valve opening: Mild Stenosis 0.75-0.85, number of mice (LDLR mice on HFD; [8]): 2
- Penetrance, fractional valve opening: Mild Stenosis 0.75-0.85, percent of mice (LDLR mice on HFD; [8]): (16%)
- Penetrance, fractional valve opening: Moderate Stenosis 0.6-0.75, number of mice (LDLR mice on HFD; [8]): 7
- Penetrance, fractional valve opening: Moderate Stenosis 0.6-0.75, percent of mice (LDLR mice on HFD; [8]): (64%)
- Penetrance, fractional valve opening: No Stenosis >0.85, number of mice (LDLR mice on HFD; [8]): 0
- Penetrance, fractional valve opening: No Stenosis >0.85, percent of mice (LDLR mice on HFD; [8]): (0%)
- Penetrance, fractional valve opening: Severe Stenosis <0.6, number of mice (LDLR mice on HFD; [8]): 2
- Penetrance, fractional valve opening: Severe Stenosis <0.6, percent of mice (LDLR mice on HFD; [8]): (18%)
- Penetrance, wall shear stress: Mild Stenosis 350-525 dyn/cm^2, number of mice (LDLR mice on HFD; [8]): 4
- Penetrance, wall shear stress: Mild Stenosis 350-525 dyn/cm^2, percent of mice (LDLR mice on HFD; [8]): (36%)
- Penetrance, wall shear stress: Moderate Stenosis 525-700 dyn/cm^2, number of mice (LDLR mice on HFD; [8]): 5
- Penetrance, wall shear stress: Moderate Stenosis 525-700 dyn/cm^2, percent of mice (LDLR mice on HFD; [8]): (46%)
- Penetrance, wall shear stress: No Stenosis <350 dyn/cm^2, number of mice (LDLR mice on HFD; [8]): 0
- Penetrance, wall shear stress: No Stenosis <350 dyn/cm^2, percent of mice (LDLR mice on HFD; [8]): (0%)
- Penetrance, wall shear stress: Severe Stenosis >700 dyn/cm^2, number of mice (LDLR mice on HFD; [8]): 2
- Penetrance, wall shear stress: Severe Stenosis >700 dyn/cm^2, percent of mice (LDLR mice on HFD; [8]): (18%)
- Penetrance, fractional valve opening: Mild Stenosis 0.75-0.85, number of mice (LDLR mice on HFD; [9]): 3
- Penetrance, fractional valve opening: Mild Stenosis 0.75-0.85, percent of mice (LDLR mice on HFD; [9]): (43%)
- Penetrance, fractional valve opening: Moderate Stenosis 0.6-0.75, number of mice (LDLR mice on HFD; [9]): 4
- Penetrance, fractional valve opening: Moderate Stenosis 0.6-0.75, percent of mice (LDLR mice on HFD; [9]): (57%)
- Penetrance, fractional valve opening: No Stenosis >0.85, number of mice (LDLR mice on HFD; [9]): 0
- Penetrance, fractional valve opening: No Stenosis >0.85, percent of mice (LDLR mice on HFD; [9]): (0%)
- Penetrance, fractional valve opening: Severe Stenosis <0.6, number of mice (LDLR mice on HFD; [9]): 0
- Penetrance, fractional valve opening: Severe Stenosis <0.6, percent of mice (LDLR mice on HFD; [9]): (0%)
- Penetrance, wall shear stress: Mild Stenosis 350-525 dyn/cm^2, number of mice (LDLR mice on HFD; [9]): 3
- Penetrance, wall shear stress: Mild Stenosis 350-525 dyn/cm^2, percent of mice (LDLR mice on HFD; [9]): (43%)
- Penetrance, wall shear stress: Moderate Stenosis 525-700 dyn/cm^2, number of mice (LDLR mice on HFD; [9]): 4
- Penetrance, wall shear stress: Moderate Stenosis 525-700 dyn/cm^2, percent of mice (LDLR mice on HFD; [9]): (57%)
- Penetrance, wall shear stress: No Stenosis <350 dyn/cm^2, number of mice (LDLR mice on HFD; [9]): 0
- Penetrance, wall shear stress: No Stenosis <350 dyn/cm^2, percent of mice (LDLR mice on HFD; [9]): (0%)
- Penetrance, wall shear stress: Severe Stenosis >700 dyn/cm^2, number of mice (LDLR mice on HFD; [9]): 0
- Penetrance, wall shear stress: Severe Stenosis >700 dyn/cm^2, percent of mice (LDLR mice on HFD; [9]): (0%)
- WSS (wall shear stress) (LDLR mice on HFD; NAC months 3-5 (moderate AS)): improved
- fractional valve opening (LDLR mice on HFD; NAC months 3-5 (moderate AS)): improved
- WSS (wall shear stress) (LDLR mice on HFD; NAC months 5-6 (severe AS)): improved
- fractional valve opening (LDLR mice on HFD; NAC months 5-6 (severe AS)): improved
- effect on AS (LDLR mice on HFD; long-term NAC treatment (1-6 months) (data not shown)): very little to no effect
- atherosclerotic plaque (adverse effect) (LDLR mice on HFD; mouse, in vivo): increased atherosclerotic plaque
- heart function (adverse effect) (LDLR mice on HFD; mouse, in vivo): deterioration of heart function
- mild to moderate AS progression (LDLR mice on HFD; short-term NAC treatment from 2-3 months (data not shown)): halted
- AS progression [1]: little to no further reduction; also recorded: did not show any effect
- activity and stability after dissolving in water [2]: validated
- shear-dependent activation of latent TGF-β1 released from platelets [3]: inhibited; also recorded: partially inhibits; also recorded: blocks
- solubility ([4]; alcohol): soluble
- solubility ([4]; chloroform): practically insoluble
- solubility ([4]; ether): practically insoluble
- solubility ([4]; water): soluble
- patients experiencing anaphylaxis reaction [5]: Up to 18%
- liver damage ([6]; taken 4 hours after alcohol, dose-dependent): made liver damage worse
- liver damage ([6]; taken before alcohol): prevented liver damage
